The values that follow come from the RepoRT retention time repository.

Structures can show the parent of a compound that is named as a salt.

A short description of the data set: RP, Waters CORTECS UPLC C18, 100 × 2.1 mm, 1.6 µm, 40 °C, 0.4 mL/min, estimated dead time 0.55 min; A: water + 0.1% formic acid, pH 3; B: acetonitrile + 0.1% formic acid, pH 3; gradient (min/%B) 0/5 1.12/5 6.41/99.5 10.01/99.5. Conditions: stereoisomer not certain.
For `CCNc1nc(NC(C)CC)nc(OC)n1` (stereo not given) [Secbumeton], the LC retention time was 3.53 min.
`C=CCNC(=O)c1c([Si](C)(C)C)sc(C)c1C` [Silthiofam]: the LC retention time was 5.36 min.
`CCC1CCCC(OC2CCC(N(C)C)C(C)O2)C(C)C(=O)C2=CC3C(C=CC4CC(OC5OC(C)C(OC)C(OC)C5OC)CC43)C2CC(=O)O1` (stereo not given) [Spinosad A & D]: the LC retention time was 4.76 min.
For `Cc1cc(C)c(C2=C(OC(=O)CC(C)(C)C)C3(CCCC3)OC2=O)c(C)c1` [Spiromesifen], the LC retention time was 6.47 min.
As for `CCOC(=O)OC1=C(c2cc(C)ccc2C)C(=O)NC12CCC(OC)CC2` (stereo not given) [Spirotetramat], the LC retention time was 4.8 min.
With `CCCN(CC)CC1COC2(CCC(C(C)(C)C)CC2)O1` (stereo not given) [Spiroxamine], the LC retention time was 4.29 min.
With `CCCCCCCCCCCCCCCCCC(=O)OC(CC(=O)[O-])C[N+](C)(C)C` [Stearoyl-L-carnitine], the LC retention time was 5.89 min.
To `CCS(=O)(=O)c1nnc(N(C)C(=O)NC)s1` [Sulfadiazole] belongs 3.13 min.
To `Cc1nn(-c2cc(NS(C)(=O)=O)c(Cl)cc2Cl)c(=O)n1C(F)F` [Sulfentrazone] belongs 4.21 min; to `Cn1c(=O)c2[nH]cnc2n(C)c1=O` [THEOPHYLLINE], 2.15 min; to `Cc1cn(C2CC(O)C(CO)O2)c(=O)[nH]c1=O` (stereo not given) [THYMIDINE], 1.1 min.
To `Cc1c[nH]c(=O)[nH]c1=O` [THYMINE] belongs 0.792 min.
Take `NC(Cc1cc(I)c(Oc2cc(I)c(O)c(I)c2)c(I)c1)C(=O)O` (stereo not given) [THYROXINE]: the LC retention time is 3.97 min.
In the case of `O=C/C=C/c1ccccc1` [TRANS-CINNAMALDEHYDE] it was 5 min.
To `NCCc1c[nH]c2ccccc12` [TRYPTAMINE] belongs 2.43 min; to `NCCc1ccc(O)cc1` [TYRAMINE], 0.755 min; to `CC(CCC(=O)NCCS(=O)(=O)O)C1CCC2C3C(O)CC4CC(O)CCC4(C)C3CC(O)C12C` (stereo not given) [Taurocholic acid sodium salt hydrate], 3.74 min.
To `CC(CCC(=O)NCCS(=O)(=O)O)C1CCC2C3CCC4CC(O)CCC4(C)C3CC(O)C12C` (stereo not given) [Taurodeoxycholic acid] belongs 4.16 min; to `CC(CCC(=O)NCCS(=O)(=O)O)C1CCC2C3C(O)CC4CC(O)CCC4(C)C3CCC12C` (stereo not given) [Tauroursodeoxycholic acid], 4.18 min; to `CC(C)(C)C(O)(CCc1ccc(Cl)cc1)Cn1cncn1` (stereo not given) [Tebuconazole], 5.06 min.
For `CCc1nn(C)c(C(=O)NCc2ccc(C(C)(C)C)cc2)c1Cl` [Tebufanpyrad], the LC retention time is 5.93 min.
In the case of `CCc1ccc(C(=O)NN(C(=O)c2cc(C)cc(C)c2)C(C)(C)C)cc1` [Tebufenozide] it was 5.33 min; in that of `CNC(=O)N(C)c1nnc(C(C)(C)C)s1` [Tebuthiuron], 3.68 min.
In the case of `O=C(NC(=O)c1c(F)cccc1F)Nc1cc(Cl)c(F)c(Cl)c1F` [Teflubenzuron] it was 5.7 min; in that of `c1ccc2[nH]c(-c3cscn3)nc2c1` [Thiabendazole], 2.53 min; in that of `N#CN=C1SCCN1Cc1ccc(Cl)nc1` [Thiacloprid], 3.6 min.
On to `CN1COCN(Cc2cnc(Cl)s2)C1=N[N+](=O)[O-]` [Thiametoxam], for which the LC retention time was 2.87 min.
With `O=C(Nc1ccccc1)Nc1cnns1` [Thidiazuron], the LC retention time is 3.74 min.
For `COC(=O)c1sccc1S(=O)(=O)NC(=O)Nc1nc(C)nc(OC)n1` [Thifensulfurson methyl], the LC retention time was 3.9 min.
To `CSC(C)=NOC(=O)N(C)SN(C)C(=O)ON=C(C)SC` [Thiodicarb] belongs 4 min; to `CNC(=O)ON=C(CSC)C(C)(C)C` [Thiofanox], 4.76 min; to `CC=C(C)C(=O)OC(CC(=O)[O-])C[N+](C)(C)C` [Tigloyl-L-carnitine], 2.43 min.
In the case of `CC=C(C)C(=O)NCC(=O)O` [Tiglyl Glycine] it was 2.22 min; in that of `COP(=S)(OC)Oc1c(Cl)cc(C)cc1Cl` [Tolclosof methyl], 5.72 min.
For `CCON=C(CC)C1=C(O)CC(c2c(C)cc(C)cc2C)CC1=O` (stereo not given) [Tralkoxidym], the LC retention time is 6.22 min.
For `CC(C)(C)C(=O)C(Oc1ccc(Cl)cc1)n1cncn1` (stereo not given) [Triadimefon], the LC retention time is 4.95 min.
To `CC(C)(C)C(O)C(Oc1ccc(Cl)cc1)n1cncn1` (stereo not given) [Triadimenol] belongs 4.74 min; to `COc1nc(C)nc(NC(=O)NS(=O)(=O)c2ccccc2OCCCl)n1` [Triasulfuron], 4.09 min; to `COP(=O)(OC)C(O)C(Cl)(Cl)Cl` (stereo not given) [Trichlorfon], 3 min.
Take `Cc1cccc2sc3nncn3c12` [Tricyclazol]: the LC retention time was 3.38 min.
To `CCNc1nc(Cl)nc(N(CC)CC)n1` [Trietazin] belongs 5.23 min; to `CON=C(C(=O)OC)c1ccccc1CON=C(C)c1cccc(C(F)(F)F)c1` [Trifloxystrobin], 5.81 min.
In the case of `CCCOCC(=Nc1ccc(Cl)cc1C(F)(F)F)n1ccnc1` [Triflumizol] it was 5.16 min; in that of `O=C(NC(=O)c1ccccc1Cl)Nc1ccc(OC(F)(F)F)cc1` [Triflumuron], 5.42 min.
In the case of `CC1(C)CCC(=Cc2ccc(Cl)cc2)C1(O)Cn1cncn1` (stereo not given) [Triticonazole] it was 4.76 min; in that of `O=c1[nH]c(=O)c2[nH]c(=O)[nH]c2[nH]1` [URATE], 0.727 min.
With `CC(CCC(=O)O)C1CCC2C3C(O)CC4CC(O)CCC4(C)C3CC(O)C12C` (stereo not given) [Ursocholic acid (7-epicholic acid)], the LC retention time is 4.34 min.
To `CCCCC(=O)OC(CC(=O)[O-])C[N+](C)(C)C` [Valeryl-L-carnitine] belongs 2.66 min; to `CNC(=O)C(C)SCCSP(=O)(OC)OC` (stereo not given) [Vamidothion], 3.02 min.
To `O=c1[nH]c(=O)c2[nH]cnc2[nH]1` [XANTHINE] belongs 0.727 min.
To `O=c1[nH]c(=O)c2ncn(C3OC(CO)C(O)C3O)c2[nH]1` (stereo not given) [XANTHOSINE] belongs 0.752 min; to `O=C(O)c1cc(=O)c2cccc(O)c2[nH]1` [XANTHURENATE], 2.15 min.
On to `CCCCCCC=CC#CCCCCCCCC(=O)O` [Ximeninic Acid], for which the LC retention time was 6.4 min.
In the case of `CCC(C)(NC(=O)c1cc(Cl)c(C)c(Cl)c1)C(=O)CCl` (stereo not given) [Zoxamide] it was 5.55 min; in that of `CCCCCCCCCC(O)CC(=O)OC(CC(=O)[O-])C[N+](C)(C)C` [[(3R)-3-Hydroxydodecanoyl]-L-carnitine], 4.2 min; in that of `CCCCCCCCCCCCCC(O)CC(=O)OC(CC(=O)[O-])C[N+](C)(C)C` [[(3R)-3-Hydroxyhexadecanoyl]-L-carnitine], 5.1 min.
In the case of `CCCCCC=CCC=CCCCCCCCC(=O)OC(CC(=O)[O-])C[N+](C)(C)C` [cis,cis-9,12-Octadecadienoyl-L-carnitine] it was 5.38 min; in that of `CCCCCCCCCC=CC(=O)OC(CC(=O)[O-])C[N+](C)(C)C` [trans-2-Dodecenoyl-L-carnitine], 4.5 min.
To `CCCCCC=CC(=O)OC(CC(=O)[O-])C[N+](C)(C)C` [trans-2-Octenoyl-L-carnitine] belongs 3.56 min; to `CCCCCCCCCCCC=CC(=O)OC(CC(=O)[O-])C[N+](C)(C)C` [trans-2-Tetradecenoyl-L-carnitine], 4.96 min.
